Literature values in patent publication US20020090642A1, “METHODS FOR DETERMINING THE PROGNOSIS OF BREAST CANCER USING ANTIBODIES SPECIFIC FOR THYMIDYLATE SYNTHASE” (priority 1995, published 2002).

Test system: TS
Conditions: 24 hours post-fluorouracil therapy, tumor biopsy samples

## O=c1[nH]cc(F)c(=O)[nH]1 [fluorouracil]
  increase in TS: 2- to 6 fold
